Experimental data published in patent publication US20240101570A1 (AMGEN INC., priority 2020, published 2024).

Assays:
HCT116 MTAP null cells = assay: HCT116 MTAP null cell proliferation / viability (CellTiter-Glo, 6 days); format: cell-based; settings: HCT116-MTAP null, 144 h, HCT116 MTAP null cells, 6 days, CellTiter-Glo; read-out: HCT-116 MTAP null IC50
Outline: (§1)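 IC50 values derive from sigmoidal dose-response fits, some with Hill slope fixed at −1 and top constrained to 100%, others from 4-parameter logistic models. They reflect CellTiter-Glo viability after 6 days of compound exposure at up to 10 or 50 μM.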

HCT116 WT cells = assay: HCT116 WT cell proliferation / viability (CellTiter-Glo, 6 days); format: cell-based; settings: Homo sapiens, HCT-116, 144 h, HCT116 WT cells, 6 days, CellTiter-Glo; read-out: HCT-116 WT IC50
Outline: as §1

| SMILES | IC50 (HCT116 MTAP null cells) [µM] | IC50 (HCT116 WT cells) [µM] |
| --- | --- | --- |
| C[C@H](c1ncccc1F)N(Cc1ccc(Br)nn1)C(=O)c1ccc2nc(N)c3c(c2c1)CCC3 [Example 624, 4-amino-N-((6-bromo-3-pyridazinyl)methyl)-N-((1R)-1-(3-fluoro-2-pyridinyl)ethyl)-2,3-dihydro-1H-cyclopenta[c]quinoline-8-carboxamide] | 0.021 | 0.189 |
| Nc1nc2ccc(C(=O)N(Cc3ccc(C(F)(F)F)cn3)C3CC3)cc2c2c1COC2 [Example 443, 4-amino-N-cyclopropyl-N-((5-(trifluoromethyl)-2-pyridinyl)methyl)-1,3-dihydrofuro[3,4-c]quinoline-8-carboxamide] | 0.127 | 7.21 |
| CC(C)N(C(=O)c1cc2c3c(c(N)nc2cc1F)COC3)[C@H](C)c1ccc(C(F)(F)F)cn1 (single isomer, unassigned) [Example 842] | 0.115 | 3.27 |
| CC(C)CN(Cc1ccc(C(F)(F)F)cn1)C(=O)c1ccc2nc(N)c3sccc3c2c1 [Example 637, 4-amino-N-(2-methylpropyl)-N-((5-(trifluoromethyl)-2-pyridinyl)methyl)thieno[2,3-c]quinoline-8-carboxamide] | 0.212 | 3.22 |
| CC(C)CN(Cc1ccc(C(F)(F)F)cn1)C(=O)c1cnc2nc(N)c3c(c2c1)CCC3 [Example 607, 6-amino-N-isobutyl-N-((5-(trifluoromethyl)pyridin-2-yl)methyl)-8,9-dihydro-7H-cyclopenta[c][1,8]naphthyridine-2-carboxamide] | 0.154 | 1.37 |
| COCC(C)N(Cc1ccc(C(F)(F)F)nn1)C(=O)c1cc2c3c(c(N)nc2cn1)COC3 (racemic) [Example 390, 4-amino-N-((2R)-1-methoxy-2-propanyl)-N-((6-(trifluoromethyl)-3-pyridazinyl)methyl)-1,3-dihydrofuro[3,4-c][1,7]naphthyridine-8-carboxamide and 4-amino-N-((2S)-1-methoxy-2-propanyl)-N-((6-(trifluoromethyl)-3-pyridazinyl)methyl)-1,3-dihydrofuro[3,4-c][1,7]naphthyridine-8-carboxamide] | 0.262 | 9.9 |
| C[C@H](c1ncccn1)N(Cc1ccc(C(F)(F)F)cn1)C(=O)c1ccc2nc(N)c3c(c2c1)CCOC3 [Example 887, 5-amino-N-[(1R)-1-pyrimidin-2-ylethyl]-N-[[5-(trifluoromethyl)-2-pyridyl]methyl]-2,4-dihydro-1H-pyrano[3,4-c]quinoline-9-carboxamide] | 0.025 | 0.496 |
| C[C@H](c1ccc(C(F)(F)F)nn1)N(C)C(=O)c1cc2c3c(c(N)nc2cc1F)[C@@H](C)OC3 (single isomer, unassigned) [Example 862] | 0.031 | 2.19 |
| Cn1ncc2c(N)nc3cc(Cl)c(C(=O)N(Cc4ccc(C(F)(F)F)nn4)C4CC4)cc3c21 [Example 796, 4-amino-7-chloro-N-cyclopropyl-1-methyl-N-((6-(trifluoromethyl)-3-pyridazinyl)methyl)-1H-pyrazolo[4,3-c]quinoline-8-carboxamide] | 0.034 | 1.67 |
| CC(C)N(Cc1ccc(C(F)(F)F)nn1)C(=O)c1cc2c3c(c(N)nc2cc1Cl)COC3 [Example 394, 4-amino-7-chloro-N-(2-propanyl)-N-((6-(trifluoromethyl)-3-pyridazinyl)methyl)-1,3-dihydrofuro[3,4-c]quinoline-8-carboxamide] | 0.03 | 0.831 |
| C[C@H](c1ccc(C(F)(F)F)cn1)N(C)C(=O)c1ccc2nc(N)c3c(c2c1)CO[C@@H]3C (single isomer, unassigned) [Example 851] | 0.047 | 4 |
| CC(C)N(Cc1ccc(Cl)cn1)C(=O)c1cc2c3c(c(N)nc2cn1)COC3 [Example 718, 4-amino-N-((5-chloro-2-pyridinyl)methyl)-N-(2-propanyl)-1,3-dihydrofuro[3,4-c][1,7]naphthyridine-8-carboxamide] | 0.281 | 16.4 |
| C[C@H](c1ccc(C(F)(F)F)cn1)N(C(=O)c1ccc2nc(N)c3c(c2c1)CO[C@@H]3C)C1CC1 [Example 746, (3R)-4-amino-N-cyclopropyl-3-methyl-N-((1R)-1-(5-(trifluoromethyl)-2-pyridinyl)ethyl)-1,3-dihydrofuro[3,4-c]quinoline-8-carboxamide] | 0.034 | 3.46 |
| Nc1nc2ccc(C(=O)N(Cc3ccc(C(F)(F)F)cn3)C34CC(C3)C4)cc2c2c1COC2 [Example 471, 4-amino-N-(bicyclo[1.1.1]pentan-1-yl)-N-((5-(trifluoromethyl)-2-pyridinyl)methyl)-1,3-dihydrofuro[3,4-c]quinoline-8-carboxamide] | 0.043 | 1.16 |
| CC(C)N(Cc1ccc(C(F)(F)F)nn1)C(=O)c1ccc2nc(N)c3c(c2c1)COC3 [Example 391, 4-amino-N-(2-propanyl)-N-((6-(trifluoromethyl)-3-pyridazinyl)methyl)-1,3-dihydrofuro[3,4-c]quinoline-8-carboxamide] | 0.091 | 4.54 |
| CCOC1CC1N(Cc1ccc(C(F)(F)F)cn1)C(=O)c1ccc2nc(N)c3c(c2c1)COC3C (centres unmarked) [Example 907, 4-amino-N-(2-ethoxycyclopropyl)-3-methyl-N-((5-(trifluoromethyl)pyridin-2-yl)methyl)-1,3-dihydrofuro[3,4-c]quinoline-8-carboxamide] | 0.04 | > 1 |
| CCN(Cc1ccc(S(F)(F)(F)(F)F)cc1)C(=O)c1ccc2nc(N)c3cnn(C)c3c2c1 [Example 564, 4-amino-N-ethyl-1-methyl-N-(4-(pentafluoro-lambda~6~- sulfanyl)benzyl)-1H-pyrazolo[4,3-c]quinoline-8-carboxamide] | 0.021 | 0.925 |
| CN(Cc1ccc(C2CC2)cn1)C(=O)c1cc2c3c(c(N)nc2cn1)COC3 [Example 349, 4-amino-N-((5-cyclopropyl-2-pyridinyl)methyl)-N-methyl-1,3-dihydrofuro[3,4-c][1,7]naphthyridine-8-carboxamide] | 0.325 | 9.19 |
| C[C@H]1OCc2c1c(N)nc1cnc(C(=O)N(C)Cc3ccc(Br)cn3)cc21 (single isomer, unassigned) [Example 597] | 0.2 | 15.2 |
| COCC(C)N(Cc1ccc(C(F)(F)F)nn1)C(=O)c1cc2c3c(c(N)nc2cc1Cl)COC3 (racemic) [Example 487, 4-amino-7-chloro-N-((2R)-1-methoxy-2-propanyl)-N-((6-(trifluoromethyl)-3-pyridazinyl)methyl)-1,3-dihydrofuro[3,4-c]quinoline-8-carboxamide and 4-amino-7-chloro-N-((2S)-1-methoxy-2-propanyl)-N-((6-(trifluoromethyl)-3-pyridazinyl)methyl)-1,3-dihydrofuro[3,4-c]quinoline-8-carboxamide] | 0.088 | 1.37 |
| CC1OCc2c1c(N)nc1ccc(C(=O)N(Cc3ccc(C(F)(F)F)cn3)CC3(C#N)CC3)cc21 (centres unmarked) [Example 917, 4-amino-N-((1-cyanocyclopropyl)methyl)-3-methyl-N-((5-(trifluoromethyl)pyridin-2-yl)methyl)-1,3-dihydrofuro[3,4-c]quinoline-8-carboxamide] | 0.017 | 1.56 |
| C[C@H]1OCc2c1c(N)nc1ccc(C(=O)N(Cc3ccc(C(F)(F)F)cn3)C3CCOCC3)cc21 [Example 489, (3R)-4-amino-3-methyl-N-(tetrahydro-2H-pyran-4-yl)-N-((5-(trifluoromethyl)-2-pyridinyl)methyl)-1,3-dihydrofuro[3,4-c]quinoline-8-carboxamide] | 0.276 | 5.21 |
| CO[C@H]1CCOC[C@@H]1N(Cc1ccc(C(F)(F)F)cn1)C(=O)c1ccc2nc(N)c3c(c2c1)COC3 (single isomer, unassigned) [Example 587] | 0.076 | 1.71 |
| CC(C)N(Cc1ccc(C(F)(F)F)nn1)C(=O)c1cc2c3c(c(N)nc2cn1)COC3 [Example 366, 4-amino-N-(2-propanyl)-N-((6-(trifluoromethyl)-3-pyridazinyl)methyl)-1,3-dihydrofuro[3,4-c][1,7]naphthyridine-8-carboxamide] | 0.175 | 12.5 |
| C[C@@H](c1ccc(F)cn1)N(C)C(=O)c1cc2c(cc1Cl)nc(N)c1cnn(C)c12 (single isomer, unassigned) [Example 594] | 0.638 | 29.1 |
| Nc1nc2cc(F)c(C(=O)N(Cc3ccc(C(F)(F)F)nn3)C3CC3)cc2c2c1COC2 [Example 357, 4-amino-N-cyclopropyl-7-fluoro-N-((6-(trifluoromethyl)-3-pyridazinyl)methyl)-1,3-dihydrofuro[3,4-c]quinoline-8-carboxamide] | 0.115 | 4.27 |
| C[C@@H]1OCc2c1c(N)nc1cnc(C(=O)N(C)Cc3ccc(C(F)(F)F)nn3)cc21 [Example 319, (3S)-4-amino-N,3-dimethyl-N-((6-(trifluoromethyl)-3-pyridazinyl)methyl)-1,3-dihydrofuro[3,4-c][1,7]naphthyridine-8-carboxamide] | 27.7 | > 50 |
| C[C@H]1OCc2c1c(N)nc1ccc(C(=O)N(Cc3ccc(C(F)(F)F)nn3)C3CCC3)cc21 [Example 722, (3R)-4-amino-N-cyclobutyl-3-methyl-N-((6-(trifluoromethyl)-3-pyridazinyl)methyl)-1,3-dihydrofuro[3,4-c]quinoline-8-carboxamide] | 0.085 | 3.35 |
